Experimental data as given in patent publication US10888530B2, “Implantable drug delivery compositions and methods of use thereof” (AcuityBio Corporation, priority 2015, dated 2021).

Columns and labels:
[1] = Therapeutic concentration range for paclitaxel
[2] = Paclitaxel analysis in rabbit lung implant study (blood, pleural fluid, lung tissue); format: in vivo
Procedure: An incision at the 8th intercostal space was made into the thorax of anesthetized rabbits. The Caudal lobe was partially released from the underlying ligament. Implants were affixed as a sandwich at the apical end of a resected caudal lobe. In all cases, 2 implants top & bottom were preloaded onto a 30 mm GIA stapler. Stapling and resection were performed using a 30 mm GIA stapler. Animals were sutured, air was removed from the thorax and the wound covered. […] A general schematic of the reset procedure is provided by FIG. 13A-D. For example, the stapler jaws (with the implant) are positioned to grasp the tissue (FIG. 13A). Staples are then deployed through the implant securing it to the tissue at the same time as the internal blade bisects the stapled tissue (FIG. 13B). The now bisected implant is released from the stapler. The resected tissue is removed.

CC(=O)O[C@H]1C(=O)[C@@]2(C)[C@H]([C@H](OC(=O)c3ccccc3)[C@]3(O)C[C@H](OC(=O)[C@H](O)[C@@H](NC(=O)c4ccccc4)c4ccccc4)C(C)=C1C3(C)C)[C@]1(OC(C)=O)CO[C@@H]1C[C@@H]2O [paclitaxel]
IC90 [1]: ~50 nM | IC90 (therapeutic concentration range) [1]: about 42.5 ng/ml | concentration at 14 days ([2]; blood and tissues outside the thorax, rabbit, day 14): < 0.5 ng/mL | Paclitaxel level in pleural fluid ([2]; paclitaxel coated buttress implants): 10 to 100 nM | Paclitaxel concentration in blood (below quantifiable limits) ([2]; rabbit, 2 days, 7 days and terminally at 14 days): < 500 pg/mL
